Here are results for four substances from patent US6488933B2, “Preparations for the treatment of T cell mediated diseases” (Yeda Research and Development Co. Ltd., priority 1995, dated 2002).

One assay has as its system IDDM. To be noted: mice, subcutaneously (sc) in an oil vehicle (IFA); cited from earlier work.
For assay [1], the system named is T cells reactive to the p277(Val^6-Val^11). In words: Cytokine profile of spleen cells of treated NOD mice, cytokine ELISA (Example 4). Format: in vivo, mouse. Particulars: spleen cells 5 weeks after treatment. The text has this: Concanavalin A (ConA), a T-cell mitogen, was used to activate total splenic T-cells as a control.
Five weeks later, the spleens of the mice were removed and the spleen cells were pooled. […] The presence of the cytokines in the culture supernatants was quantitated by ELISA, using Pharmingen paired antibodies according to the Pharmingen cytokine ELISA protocol. Pharmingen recombinant mouse cytokines were used as standards for calibration curves. Briefly, flat-bottom 96-well microtiter plates were coated with rat anti-mouse cytokine mAbs for 18 h at 4° C., and the culture supernatants or recombinant mouse cytokines were added for 18 h at 4° C. The plates were washed, and biotinylated rat anti-mouse cytokine mAbs were added for 45 min at room temperature, then extensively washed, and avidin-alkaline phosphatase was added. The plates were washed, a chromogen substrate (p-nitrophenylphosphate) was added and samples were read at 405 nm in an ELISA reader. The concentrations of cytokines are shown as the OD readings. *P<0.01.

Another assay deals with NOD mice. Kind of assay: Antibody isotypes induced by p277(Val^6-Val^11) therapy, isotype ELISA (Example 3). The format is in vivo, mouse. Particulars: NOD mice 3 months old, treated in oil, FIG. 2. As to the method: The sera of individual mice were assayed for the isotypes of their antibodies to p277(Val6-Val^11) after treatment (12-15 mice per group). The antibody isotypes were detected using an ELISA assay with isotype-specific developing antibody reagents (Southern Biotechnology Associates, Birmingham, Ala.). […] The columns in each experiment show results from equal numbers of mice; an apparent reduction in numbers of circles is caused by superimposition.
Background: ELISA stands for enzyme-linked immunosorbent assay.

The next assay relates to autoimmune T cells. In words: p277(Val^6-Val^11)-peptide treatment: spontaneous T-cell responses and autoantibodies (summary statement). The format is in vivo, mouse. To be noted: peptide in an appropriate carrier.

On to “p12: human hsp60 positions 166-185: EEIAQVATISANGDKEIGNI”, for which the “Peptide therapy for treatment of IDDM” value in the assay with IDDM is on record as “effective”.

Regarding “p277(Val^6-Val^11): SEQ ID NO 4, hsp60 437-460 with C-442 and C-447 changed to V: VLGGGVALLRVIPALDSLTPANED”, in assay [1] (24 h incubation with Con A, FIG. 3B), the “IL-2 cytokine response to ConA” value is reported as “maintained”. Moreover, in assay [1] (24 h incubation, vs control mice (PBS in Intralipid), P<0.01, FIG. 3A), the “IL-2 secretion in response to incubation with peptide p277(Val^6-Val^11)” value is listed as “significantly less”. The “IFNγ cytokine response to ConA” value in assay [1] (48 h incubation with Con A, FIG. 3B) is reported as “maintained”. Besides, the “IFNγ secretion in response to incubation with peptide p277(Val^6-Val^11)” value in assay [1] (48 h incubation, vs control mice (PBS in Intralipid), P<0.01, FIG. 3A) is listed as “significantly less”. Also, in the assay with NOD mice, the “TH1-type IgG2a antibodies” value was “no TH1-type IgG2a antibodies induced”; the “isotypes of the anti-p277 antibodies developing after treatment” value is “exclusively of the IgG1 and IgG2b classes”. Further, in the assay with autoimmune T cells, the “production of autoantibodies to hsp60, to GAD and to insulin” value is “abolished”; the “spontaneous T-cell proliferative responses to epitopes of both hsp60 and GAD” value was “down-regulated”; the “spontaneous T-cell response of the treated mice to a bacterial hsp60 peptide” value was “remained in the TH1 mode”.

For the substance “p32: human hsp60 positions 466-485: EIIKRTLKIPAMTIAXNAGV (EIIKRTLKIPAMTIAKNAGV)”, the “Peptide therapy for treatment of IDDM” value in the assay on IDDM is listed as “effective”.

Regarding “p277: human hsp60 positions 437-460: VLGGGCALLRCIPALDSLTPANED”, the “Peptide therapy for treatment of IDDM” value with IDDM was “effective”.
